These results are taken from article PMC13316043, “Structural basis of NSD2 degradation via targeted recruitment of SCF-FBXO22” (Nature Communications, 2026).

The target of one series is T1, NSD2 (Homo sapiens, UniProt O96028).
T1 construct: endogenous in cells; host or cells: U2OS (ATCC)
T1 sequence (O96028 1-1365): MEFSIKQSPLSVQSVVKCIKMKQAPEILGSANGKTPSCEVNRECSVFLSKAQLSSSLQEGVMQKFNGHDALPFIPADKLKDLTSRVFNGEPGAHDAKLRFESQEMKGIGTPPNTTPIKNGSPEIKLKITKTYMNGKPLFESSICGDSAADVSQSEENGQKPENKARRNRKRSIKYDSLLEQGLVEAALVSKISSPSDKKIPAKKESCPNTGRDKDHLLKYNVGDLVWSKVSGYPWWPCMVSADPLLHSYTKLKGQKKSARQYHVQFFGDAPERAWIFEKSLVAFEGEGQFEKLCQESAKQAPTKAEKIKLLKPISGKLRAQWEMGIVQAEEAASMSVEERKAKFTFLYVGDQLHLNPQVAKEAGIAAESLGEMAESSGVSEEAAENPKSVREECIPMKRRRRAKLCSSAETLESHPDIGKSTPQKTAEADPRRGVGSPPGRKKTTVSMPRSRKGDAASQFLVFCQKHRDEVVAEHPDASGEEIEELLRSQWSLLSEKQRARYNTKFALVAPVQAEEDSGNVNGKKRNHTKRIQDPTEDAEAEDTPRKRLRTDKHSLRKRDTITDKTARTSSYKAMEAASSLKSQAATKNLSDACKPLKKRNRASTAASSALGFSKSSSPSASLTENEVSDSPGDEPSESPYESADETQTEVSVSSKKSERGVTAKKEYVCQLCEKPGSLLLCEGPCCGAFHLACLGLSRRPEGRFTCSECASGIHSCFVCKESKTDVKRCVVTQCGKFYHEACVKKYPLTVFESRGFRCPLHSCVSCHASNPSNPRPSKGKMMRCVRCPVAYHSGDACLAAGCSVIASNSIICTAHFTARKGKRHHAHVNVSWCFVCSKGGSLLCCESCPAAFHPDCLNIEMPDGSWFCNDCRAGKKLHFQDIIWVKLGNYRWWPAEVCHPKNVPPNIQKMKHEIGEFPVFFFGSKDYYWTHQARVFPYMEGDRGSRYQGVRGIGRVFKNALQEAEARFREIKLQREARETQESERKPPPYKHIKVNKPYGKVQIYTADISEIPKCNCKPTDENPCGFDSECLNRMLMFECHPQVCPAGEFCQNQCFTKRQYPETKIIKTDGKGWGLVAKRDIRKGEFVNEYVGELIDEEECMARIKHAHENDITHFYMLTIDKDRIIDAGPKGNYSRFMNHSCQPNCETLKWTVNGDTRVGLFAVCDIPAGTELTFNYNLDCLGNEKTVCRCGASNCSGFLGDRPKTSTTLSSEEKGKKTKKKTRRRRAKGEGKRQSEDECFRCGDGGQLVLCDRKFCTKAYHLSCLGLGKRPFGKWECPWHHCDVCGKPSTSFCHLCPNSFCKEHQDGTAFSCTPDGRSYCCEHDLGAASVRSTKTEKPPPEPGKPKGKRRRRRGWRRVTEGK
Description: Western blot of NSD2 in U2OS cells. The series is classed as cell-based. The note with it: 300 nM, 6 h. The method, then:
HEK293T and U2OS were obtained from ATCC and cultured in high-glucose-containing Dulbecco’s Modified Eagle’s Medium (DMEM; Gibco; cat. #11995) supplemented with 10% fetal bovine serum (VWR) and 1% penicillin/streptomycin (Gibco). Cells were treated with either UNC10415667, UNC12149, UNC12567, hemin (Sigma; cat. #H9039), or DMSO control for the indicated times and analyzed by western blot using standard procedures. Briefly, cells were lysed on ice for 15 min in NETN lysis buffer (20 mM Tris pH 8.0, 100 mM NaCl, 0.5 mM EDTA, 0.5% NP40) supplemented with 10 µg/mL aprotinin, 10 µg/mL leupeptin, 10 µg/mL pepstatin A, 1 mM sodium orthovanadate, 1 mM sodium fluoride, and 1 mM AEBSF (4-[two aminoethyl] benzenesulfonyl fluoride). Cell lysates were centrifuged at 20,000×g in a benchtop microcentrifuge at 4 °C for 10 min. Protein concentration was determined by Bradford assay (Bio-Rad; cat. #5000006). Protein concentration was normalized using Laemmli buffer. Samples were heated for 5 min at 95°C in a dry water-bath. Samples were separated on TGX stain free gels (Bio-Rad) transferred to nitrocellulose membrane and blocked in 5% non-fat dry milk (Biorad; cat. #1706404) diluted in 1x TBS-T (137 mM NaCl, 2.7 mM KCl, 25 mM Tris pH 7.6, 1% Tween-20). […]

Another series deals with U2OS cells. Description: CellTiter-Glo cell viability assay. The series is classed as cell-based, human. To be noted: 1 µM, 6 h. As for the experimental part: The cell viability of NSD2 HiBiT U2OS P112 and parental U2OS cell lines treated with NSD2 degrader was determined by the CellTiter-Glo 2.0 Cell Viability Assay (Promega, G9242). 384-well plates (Corning) with cells and the reagent were equilibrated to the room temperature before detection. The reagent was added to the assay plate according to the product instruction and allowed to incubate on an orbital shaker for 3 min at room temperature before subjecting the plate to the GloMax luminometer (Promega). The data and graphs were then analyzed and generated using GraphPad Prism (v 10.4.1)

In the case of `Cc1cc(C=O)ccc1C(=O)N1CCc2cc(NC(=O)c3ccc(CN(C(=O)c4ccc5c(c4)OCC(=O)N5)C4CC4)cc3)ccc2C1` [UNC12149], the “NSD2 level by western blot” value at NSD2 was “undetectable”.

With `O=Cc1ccc(C(=O)N2CCc3cc(NC(=O)c4ccc(CN(C(=O)c5ccc6c(c5)OCC(=O)N6)C5CC5)cc4)ccc3C2)cc1` [UNC10415667], the cell viability result in the series with U2OS cells is given as “did not impact cell viability”.
